Experimental data taken from patent US20230348401A1, “Inhibitors of Glucose-6-phosphate Dehydrogenase and Uses Thereof” (The Trustees of Princeton University, priority 2020, published 2023).

Key:
HCT116 cells = test: NADP/NADPH ratio and dUMP levels in HCT116 cells; format: cell-based, human; conditions: dose-response
Experimental: For analysis of intracellular metabolites by LC-MS, adherent cell lines were plated and grown to 80% confluency in 6-well plates. At the start of an experiment, the appropriate media was added to cells, which included isotope tracers and/or chemical inhibitors as described. Cells were incubated at 37° C. at 5% CO2 for 2 hours (unless otherwise noted). For all experiments involving small molecule agents, DMSO concentrations were <0.2%. After 2 hours, media was removed by aspiration and metabolome extraction was performed (without any wash steps) by the addition of 800 µL of ice cold solvent (40:40:20 acetonitrile:methanol:water + 0.5% formic acid). After a 1-minute incubation on ice, the extract was neutralized by the addition of NH4HCO3 (15% w/v). The samples were incubated at -20° C. for approximately 30 minutes, at which point the wells were scraped and the extract transferred to Eppendorf tubes and centrifuged (15 minutes, 16000 rpm, 4° C.). […]
Metabolites were analyzed using a quadrupole-orbitrap mass spectrometer (Q Exactive Plus, Thermo Fisher Scientific, Waltham, MA), coupled to hydrophilic interaction chromatography (HILIC) with LC separation on a XBridge BEH Amide column (Waters), or a stand-alone orbitrap (Thermo-Fisher Exactive) coupled to reversed-phase ion-pairing chromatography with LC separation on a HSS-T3 column (Waters). […]

[1] = test system: mouse CD8+ and CD4+ T cells; test: Metabolites and 1-2H-glucose tracing in active T cells; format: cell-based
Experimental: Cells were cultured in complete RPMI media (RPMI 1640 supplemented with 10% FBS, 100 U/ml penicillin, 100 µg/ml streptomycin, and 50 µM 2-mercaptoethanol). Naïve T cells were either rested in complete RPMI media supplemented with recombinant IL-7 (50U/mL) or stimulated for 48 hours with plate-bound anti-CD3 (10 µg/ml) and anti-CD28 (5 µg/ml) in complete RPMI media supplemented with 100 µM alanine and recombinant IL-2 (100 U/mL). Activated T cells were maintained in complete RPMI media supplemented with recombinant IL-2 (100 U/mL). All experiments on “active” T cells were performed at day 4-5 post-activation
(§1) For all experiments involving stable isotope tracers (e.g., 1-^2H-glucose), the isotope tracer nutrient was substituted for unlabeled nutrient at the same concentration normally found in the base media for a given cell type (e.g., DMEM for HCT116, RPMI for T cells, etc.). In addition, dialyzed FBS was used as a supplement in place of FBS.
For suspension cells (including T cells and red blood cells), 2×10^6 cells were seeded in 1 mL of media in 12-well plates and incubated with appropriate media, which included isotope tracers and/or chemical inhibitors and/or cytokines, as described. For all experiments involving small molecule agents, DMSO concentrations were <0.2%. After 2 hours, cell suspensions were transferred to 1.5 mL tubes and pelleted (30 seconds, 6000 rpm, room temperature). Media was removed by aspiration and metabolome extraction was performed by the addition of 75 µL of ice cold solvent (40:40:20 ACN:MeOH:H2O + 0.5%FA). After a 5-minute incubation on ice, acid was neutralized by the addition of NH4HCO3. After centrifugation (15 minutes, 16000 rpm, 4° C.), the resulting supernatant was transferred to a clean tube, frozen on dry ice and kept at -80° C. until LC-MS analysis.

CD8+ and CD4+ T cells = test: Intracellular ROS (CellROX green); format: cell-based, mouse; conditions: two hours
Experimental: For measuring intracellular ROS levels, cells were incubated for 2 hours in the presence of increasing concentrations of G6PDi-1 and then stained for ROS and viability using CellROX Green Flow Cytometry Assay Kit following manufacturer instructions. In some experiments, n-acetyl cysteine (1 mM), galactose oxidase (0.045 U/mL) + galactose (500 µM), or potassium superoxide (0.5 µg/mL) were added to the culture media at the same time the drug and/or PMA and ionomycin were added. All flow cytometry was analyzed with an LSR II (BDbiosciences) using standard filter sets and FCS express 6 flow cytometry software (De Novo Software).

G6PD = G6PD (Homo sapiens, UniProt P11413); test: 2H transfer from 1-2H-glucose to NADPH active hydride and C16:0 in HCT116 cells; format: cell-based; parameters: endogenous in cells; host or cells: HCT116; conditions: HCT116 cells
Excerpt: Direct Monitoring of NADPH Produced by the G6PD Reaction. […] NADPH production is compartmentalized, and occurs through reduction of its redox partner NADP^+. G6PD is one of the main enzymes that generates NADPH, and catalyzes the transfer of electrons (in the form of hydride) from glucose-6-phosphate to NADP^+. By installing a deuterium at the “one” position of glucose (1-^2H-glucose), the transfer of that deuterium to the active hydride of NADPH via glucose-6-phosphate can be specifically monitored. Also, a major use of cytosolic NADPH is fat synthesis. Transfer of ^2H from glucose via NADPH into free palmitate (C16:0) requires two NADPH per two-carbon unit addition during its synthesis.
Next, G6PD mediated hydride transfer to NADPH was directly monitored. Specifically, transfer of deuterium from 1-^2H-glucose, via glucose-6-phosphate, to the NADPH’s active hydride was monitored (FIG. 1B). […] The impacted step was G6PD, as no change in substrate (G6P) labeling was observed (FIG. 1E). A major use of cytosolic NADPH is fat synthesis. Transfer of ^2H from glucose via NADPH into palmitate (C16:0), which requires two NADPH per 2-carbon unit addition during its synthesis, was quantified (FIG. 1B).
as §1
Cytosolic NADPH sources were traced, and redox active hydride labeling was calculated, using a previously described strategy. 1-^2H-glucose (which directly traces G6PD) or 3-^2H-glucose (which directly traces PGD) were used for tracing oxPPP contribution to NADPH; 4-^2H-glucose for ME1; [2,3,3,4,4-^2H5]-glutamine, for both ME1 and IDH1; and D2O, to account for solvent exchange.
For analysis of intracellular metabolites by LC-MS, adherent cell lines were plated and grown to 80% confluency in 6-well plates. At the start of an experiment, the appropriate media was added to cells, which included isotope tracers and/or chemical inhibitors as described. Cells were incubated at 37° C. at 5% CO2 for 2 hours (unless otherwise noted). For all experiments involving small molecule agents, DMSO concentrations were <0.2%. After 2 hours, media was removed by aspiration and metabolome extraction was performed (without any wash steps) by the addition of 800 µL of ice cold solvent (40:40:20 acetonitrile:methanol:water + 0.5% formic acid). After a 1-minute incubation on ice, the extract was neutralized by the addition of NH4HCO3 (15% w/v). The samples were incubated at -20° C. for approximately 30 minutes, at which point the wells were scraped and the extract transferred to Eppendorf tubes and centrifuged (15 minutes, 16000 rpm, 4° C.). The resulting supernatant was frozen on dry ice and kept at -80° C. until LC-MS analysis.

Sequence of G6PD (P11413 whole entry): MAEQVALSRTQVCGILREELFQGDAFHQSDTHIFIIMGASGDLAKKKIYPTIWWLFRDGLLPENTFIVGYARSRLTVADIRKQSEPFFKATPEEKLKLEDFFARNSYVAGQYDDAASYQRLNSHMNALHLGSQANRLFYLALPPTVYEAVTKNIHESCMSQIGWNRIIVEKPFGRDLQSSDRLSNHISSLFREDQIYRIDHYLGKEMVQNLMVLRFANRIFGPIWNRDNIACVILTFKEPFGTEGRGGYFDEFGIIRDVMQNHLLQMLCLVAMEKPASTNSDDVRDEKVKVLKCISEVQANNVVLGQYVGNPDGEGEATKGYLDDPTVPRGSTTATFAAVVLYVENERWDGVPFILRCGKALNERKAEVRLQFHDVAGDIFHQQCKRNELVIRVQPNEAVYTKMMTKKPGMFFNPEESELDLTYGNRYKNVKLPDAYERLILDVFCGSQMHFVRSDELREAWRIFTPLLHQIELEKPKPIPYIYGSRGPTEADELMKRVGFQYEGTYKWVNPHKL

SMILES: N#Cc1cc(Nc2ncc3c(n2)CCCCC3=O)cs1 [Compound 2, 4-([5-oxo-6H,7H,8H,9H-cyclohepta[d]pyrimidin-2-yl]amino)thiophene-2-carbonitrile]
- NADP/NADPH (HCT116 cells): dose-dependent increases
- dUMP (HCT116 cells): dose-dependent increases
- NADPH and 6-pg levels ([1]; 10 µM, day 4-5 post-activation): decreased
- 2H transfer from glucose to NADPH ([1]; 10 µM, day 4-5 post-activation, 1-2H-glucose): completely blocked
- fatty acid synthesis ([1]; CD8+ T cells): nearly completely ablated
- time to effects on NADPH labeling and NADP+, NADPH and 6-pg levels ([1]; active CD8+ T cells, 50 µM): ≤ 10 min
- time to restoration of NADPH, NADP+ and 6-pg levels after removing the inhibitor ([1]; active T cells): ≤ 2 h
- reactive oxygen species (CD8+ and CD4+ T cells): elevated reactive oxygen species
- 2H transfer from 1-2H-glucose to downstream product C16:0 (G6PD; dose-response): dose-dependent decrease
- IC50 (G6PD; read-out: IC50, decrease in 2H transfer from 1-2H-glucose to NADPH's active hydride): ~31 µM
